Assay results taken from patent US11319324B2, “Pyrazolo-pyrrolo-pyrimidine-dione derivatives as P2X3 inhibitors” (Bayer Aktiengesellschaft, priority 2017, dated 2022).

Assays:
Format in all cases: cell-based
human P2X2/3 receptors = target: T1, human P2X2/3 receptors (Homo sapiens, UniProt P56373+Q9UBL9); test: Intracellular calcium measurement, antagonist activity at human P2X2/3 receptors (hP2X23 1321N1), Fluo8; settings: for IC50: column 4); 1321N1 cells, human P2X2/3, Fluo8, agonist ATP at EC50; read-out: 4) hP2X2/3 IC50 [nM] (1321N1); for hP2X23/hP2X3* Selectivity (1321N1): ratio of column 4) hP2X2/3 to column 3) hP2X3, 1321N1
T1 construct: expressed in transfected cells; host or cells: human astrocytoma 1321N1 (1312N1 [sic])
T1 sequence (P56373 1-397): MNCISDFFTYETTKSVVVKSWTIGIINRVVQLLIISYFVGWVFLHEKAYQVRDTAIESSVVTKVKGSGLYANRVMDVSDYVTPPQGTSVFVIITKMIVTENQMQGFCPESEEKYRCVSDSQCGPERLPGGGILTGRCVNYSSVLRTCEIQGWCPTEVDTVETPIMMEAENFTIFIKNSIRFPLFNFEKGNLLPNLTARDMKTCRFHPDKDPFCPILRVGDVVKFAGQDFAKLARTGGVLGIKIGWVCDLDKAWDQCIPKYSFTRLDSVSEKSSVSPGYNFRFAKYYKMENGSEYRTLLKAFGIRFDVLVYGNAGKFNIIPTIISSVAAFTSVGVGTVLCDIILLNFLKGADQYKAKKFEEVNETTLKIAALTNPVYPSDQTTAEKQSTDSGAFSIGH
T1 sequence (Q9UBL9 1-471): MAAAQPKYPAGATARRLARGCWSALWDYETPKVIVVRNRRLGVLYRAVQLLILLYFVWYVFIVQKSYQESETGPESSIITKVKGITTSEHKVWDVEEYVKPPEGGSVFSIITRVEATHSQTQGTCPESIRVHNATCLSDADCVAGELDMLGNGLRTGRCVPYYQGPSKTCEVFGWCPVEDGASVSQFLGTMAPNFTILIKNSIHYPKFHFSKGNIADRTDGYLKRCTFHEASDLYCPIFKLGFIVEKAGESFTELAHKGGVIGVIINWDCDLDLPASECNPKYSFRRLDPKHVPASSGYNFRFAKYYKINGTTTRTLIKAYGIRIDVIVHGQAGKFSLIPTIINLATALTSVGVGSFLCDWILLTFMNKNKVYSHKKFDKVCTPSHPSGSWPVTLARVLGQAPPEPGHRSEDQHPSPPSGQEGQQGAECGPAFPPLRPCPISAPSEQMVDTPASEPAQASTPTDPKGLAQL
Protocol: (§1) 3) And 4) Intracellular Calcium Measurement to Compare Antagonist Activity at Human P2X3 Receptors (hP2X3 1321N1) and at Human P2X2/3 Receptors (hP2X23 1321N1)
(§2) The comparison of antagonistic activity at the P2X3 versus the P2X2/3 receptor of the compounds of the invention were performed by use of recombinant cell lines. These cell lines derived originally from the human astrocytoma cell line […] (Macintyre E H, Pontén J, Vatter A E. Acta Pathol Microbiol Scand A. 1972; 80(2):267-83). The cell lines are stably transfected with the human P2X3 receptor forming homotrimeric P2X3 receptors or are co-transfected with P2X2 and P2X3 forming heterotrimeric P2X2/3 receptors. Stimulation of the receptors with the agonist ATP leads to a conformational change of the receptors and influx of extracellular calcium ions through the open ion channel. The cytoplasmatic calcium transient is detected via the calcium sensitive dye Fluo8. The strength of Fluo8 fluorescence signal corresponds to the level of receptor activation. An inhibitor would decrease the signal depending on its potency and concentration. Fluorescence was measured by use of a suitable fluorescence reader.
(§3) On the day before the assay, the cells were plated in culture medium (DMEM high glucose, 10% FCS, 1% MEM non-essential amino acids, 4 mM Glutamax) in 384-well poly-D-lysine coated microtiter plates and kept in a cell incubator (96% humidity, 5% v/v CO2, 37° C.). On the day of the assay medium was exchanged by Fluo8 containing buffer and incubated for 60 minutes. Test compounds were added at various concentrations and plates were incubated for 10 minutes. In the fluorescence reader a 3 seconds baseline measurement was performed and the agonist ATP was applied at EC50 concentration of the respective receptor during constant fluorescence measurement for 120 seconds.

human P2X3 receptor [1] = target: T2, human P2X3 receptor (Homo sapiens, UniProt P56373); test: Intracellular calcium measurement, antagonist activity at human P2X3 receptors (hP2X3 1321N1), Fluo8; parameters: expressed in transfected cells; host or cells: human astrocytoma 1321N1 (1312N1 [sic]); settings: column 3); 1321N1 cells, human P2X3, Fluo8, agonist ATP at EC50
T2 sequence (P56373 1-397): T1 sequence (P56373 1-397)
Protocol: as §1, §2, §3

human P2X3 receptor [2] = target: T2, human P2X3 receptor; test: Intracellular calcium measurement to assess antagonist activity at human P2X3 receptors (hP2X3 CHO), photina luminescence; parameters: expressed in transfected cells; host or cells: Chinese hamster ovary (CHO) cells; settings: column 2), CHO cells, agonist α,β-methylene-ATP at EC50
In short: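 CHO cells stably expressing human P2X3 and mitochondrial photina, plated the day before at 30 °C, then loaded 3 h at 37 °C in 2 mM Ca-tyrode buffer with 5 μg/ml coelenterazine. Agonist-evoked calcium luminescence read immediately; inhibition seen as signal decrease.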

IC50 (human P2X2/3 receptors)	hP2X23/hP2X3* Selectivity (1321N1) (human P2X2/3 receptors)	IC50 (human P2X3 receptor [1])	IC50 (human P2X3 receptor [2])	SMILES
2250 nM	139	16 nM	12 nM	CC(C)N1Cc2c(n(CC(=O)Nc3ccc(F)cn3)c3cc(-c4ccccc4)nn3c2=O)C1=O [Example 150, 2-[5,8-dioxo-2-phenyl-6-(propan-2-yl)-5,6,7,8-tetrahydro-4H-pyrazolo[1,5-a]pyrrolo[3,4-d]pyrimidin-4-yl]-N-(5-fluoropyridin-2-yl)acetamide]
> 32000 nM	>43	740 nM	185 nM	CCc1cc2n(CC(=O)Nc3ccc(F)cn3)c3c(c(=O)n2n1)CN(C[C@@H]1COCCN1)C3=O [Example 248, 2-{2-ethyl-6-[(3R)-morpholin-3-ylmethyl]-5,8-dioxo-5,6,7,8-tetrahydro-4H-pyrazolo[1,5-a]pyrrolo[3,4-d]pyrimidin-4-yl}-N-(5-fluoropyridin-2-yl)acetamide]
7400 nM	20	370 nM	355 nM	CCc1cc2n(CC(=O)Nc3ccc(C)cn3)c3c(c(=O)n2n1)CN(CC1CCCO1)C3=O (stereo not shown) [Example 63]
4900 nM	148	33 nM	27 nM	CC(C)Nc1cc2n(CC(=O)Nc3ccc(F)cn3)c3c(c(=O)n2n1)CN(C(C)C)C3=O [Example 171]
> 32000 nM	>74	433 nM	430 nM	CCc1cc2n(CC(=O)Nc3ccccn3)c3c(c(=O)n2n1)CN(C(C)C)C3=O [Example 64]
9200 nM	85	109 nM	305 nM	CC(C)N1Cc2c(n(CC(=O)Nc3ccc(F)cn3)c3cc(C4CCN(C)C4)nn3c2=O)C1=O (racemic) [Example 249, N-(5-fluoropyridin-2-yl)-2-{2-[(±)-1-methylpyrrolidin-3-yl]-5,8-dioxo-6-(propan-2-yl)-5,6,7,8-tetrahydro-4H-pyrazolo[1,5-a]pyrrolo[3,4-d]pyrimidin-4-yl}acetamide]
1900 nM	58	33 nM	27 nM	CC(C)N1Cc2c(n(CC(=O)Nc3ccc(F)cn3)c3cc(NC(=O)OC(C)(C)C)nn3c2=O)C1=O [Example 91]
> 32000 nM	>101	317 nM	270 nM	CCc1cc2n(CC(=O)Nc3ccc(F)cn3)c3c(c(=O)n2n1)CN(C1CCN(C(=O)C(F)F)C1)C3=O (stereo not shown) [Example 266]
> 20600 nM	>146	141 nM	108 nM	CCc1cc2n(CC(=O)Nc3ccc(F)cn3)c3c(c(=O)n2n1)CN(C[C@@H]1COCCN1C(C)C)C3=O [Example 260]
> 32000 nM	>194	165 nM	109 nM	CC(C)N1Cc2c(n(CC(=O)Nc3ccc(F)cn3)c3cc(C(=O)N(C)C)nn3c2=O)C1=O [Example 182, 4-{2-[(5-fluoropyridin-2-yl)amino]-2-oxoethyl}-N,N-dimethyl-5,8-dioxo-6-(propan-2-yl)-5,6,7,8-tetrahydro-4H-pyrazolo[1,5-a]pyrrolo[3,4-d]pyrimidine-2-carboxamide]
> 23500 nM	>291	81 nM	35 nM	COC[C@H](C)N1Cc2c(n(CC(=O)Nc3ccc(F)cn3)c3cc(C(=O)N(C)C)nn3c2=O)C1=O [Example 189]
3200 nM	70	46 nM	38 nM	CC(C)N1Cc2c(n(CC(=O)Nc3ccc(F)cn3)c3cc(C(=O)NCC(F)F)nn3c2=O)C1=O [Example 184]
> 23000 nM	>12	1930 nM	695 nM	CCc1cc2n(CC(=O)Nc3ccc(C)cn3)c3c(c(=O)n2n1)CN(CC1CCOC1)C3=O (stereo not shown) [Example 61]
> 32000 nM	>55	587 nM	245 nM	CC(C)N1Cc2c(n(CC(=O)Nc3ccc(F)cn3)c3cc(NC(=O)CO)nn3c2=O)C1=O [Example 289, N-[4-{2-[(5-fluoropyridin-2-yl)amino]-2-oxoethyl}-5,8-dioxo-6-(propan-2-yl)-5,6,7,8-tetrahydro-4H-pyrazolo[1,5-a]pyrrolo[3,4-d]pyrimidin-2-yl]-2-hydroxyacetamide]
> 23000 nM	>56	410 nM	290 nM	CCc1cc2n(CC(=O)Nc3ccc(F)cn3)c3c(c(=O)n2n1)CN(C1CCOCC1)C3=O [Example 94]
7000 nM	1321	5 nM	11 nM	CC(C)N1Cc2c(n(CC(=O)Nc3ccc(F)cn3)c3cc(C(=O)N(C)CC4CC4)nn3c2=O)C1=O [Example 199]
1800 nM	38	48 nM	32 nM	CC(C)N1Cc2c(n(CC(=O)Nc3ccc(F)cn3)c3cc(NC(=O)COCc4ccccc4)nn3c2=O)C1=O [Example 287, 2-(benzyloxy)-N-[4-{2-[(5-fluoropyridin-2-yl)amino]-2-oxoethyl}-5,8-dioxo-6-(propan-2-yl)-5,6,7,8-tetrahydro-4H-pyrazolo[1,5-a]pyrrolo[3,4-d]pyrimidin-2-yl]acetamide]
8900 nM	399	22 nM	20 nM	COC[C@H](C)N1Cc2c(n(CC(=O)Nc3ccc(F)cn3)c3cc(C(=O)N(C)CC4CC4)nn3c2=O)C1=O [Example 195]
7400 nM	427	17 nM	36 nM	CC(C)N1Cc2c(n(CC(=O)Nc3ccc(F)cn3)c3cc(C4CCN(C(=O)C(F)F)CC4)nn3c2=O)C1=O [Example 264]
1950 nM	328	6 nM	4 nM	CC(C)N1Cc2c(n(CC(=O)Nc3ccc(F)cn3)c3cc(C4CCCCC4)nn3c2=O)C1=O [Example 85]
> 32000 nM	>25	1270 nM	628 nM	CCc1cc2n(CC(=O)Nc3ccc(F)cn3)c3c(c(=O)n2n1)CN(CC1CCNCC1)C3=O.Cl [Example 240]
1140 nM	165	7 nM	11 nM	CC(C)N1Cc2c(n(CC(=O)Nc3ccc(F)cn3)c3cc(C4=CCN(C(=O)OC(C)(C)C)C4)nn3c2=O)C1=O [Example 142, tert-butyl 3-[4-{2-[(5-fluoropyridin-2-yl)amino]-2-oxoethyl}-5,8-dioxo-6-(propan-2-yl)-5,6,7,8-tetrahydro-4H-pyrazolo[1,5-a]pyrrolo[3,4-d]pyrimidin-2-yl]-2,5-dihydro-1H-pyrrole-1-carboxylate]
